Our source for the IC50 values is patent US8198273B2, “Compounds and methods for kinase modulation, and indications therefor” (Plexxikon Inc., priority 2009, dated 2012).

Data set [1] deals with SW620 colon adenocarcinoma cells (wild-type B-RAF). The data set can be described thus: SW620 cell growth inhibition (ATPlite). Format: cell-based. Conditions: Homo sapiens, SW-620, 72 h; SW620, 3 days incubation. The gist of the method:
(§1)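 ATPlite luminescence, taken as a cell-number measure, gave IC50 values after a 3-day 37° C, 5% CO2 incubation. Compounds were tested as 8-point threefold titrations, highest final concentration 10 μM, added to cells seeded the day before.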

Data set [2] deals with A375 melanoma cells (B-Raf V600E). In words: A375 cell growth inhibition (ATPlite). To be noted: Homo sapiens, A-375, 72 h; A375, 3 days incubation. Type of data set: cell-based. The essentials: as §1
Background: ATP-based viability assays read luminescence as a measure of living cells.

Data set [3] has as its system SKMEL2 melanoma cells (Ras mutation). The data set can be described thus: SKMEL2 cell growth inhibition (ATPlite). Type of data set: cell-based. To be noted: Homo sapiens, SK-MEL-2, 72 h; SKMEL2, 3 days incubation. The gist of the method: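 SKMEL2 cells seeded at 2,000 per well overnight, then exposed to an 8-point 1:3 compound titration (top 10 μM final) for 3 days at 37 °C. ATPlite luminescence used as a measure of cell number to derive IC50.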

The target of the next data set is CYP3A4(BFC) (Homo sapiens, UniProt P08684). The data set can be described thus: CYP3A4(BFC) inhibition (fluorescent substrate). Type of data set: in vitro ADME. Conditions: read-out: Cyp IC50 3A4(BFC). The essentials:
(§2)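 Compound, from a 100 mM DMSO stock and diluted 1:1 over 10 points in co-factor mix, was incubated at 37° C with enzyme and a known substrate. Decrease in fluorescent product against concentration gave the IC50.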

Another data set addresses CYP3A4(BQ) (Homo sapiens, UniProt P08684). In words: CYP3A4(BQ) inhibition (fluorescent substrate). Type of data set: in vitro ADME. To be noted: read-out: Cyp IC50 3A4(BQ). The gist of the method:
as §2

A value given as a limit tells only on which side of the number the result lay.

Chain of CYP3A4(BQ) (P08684 whole entry): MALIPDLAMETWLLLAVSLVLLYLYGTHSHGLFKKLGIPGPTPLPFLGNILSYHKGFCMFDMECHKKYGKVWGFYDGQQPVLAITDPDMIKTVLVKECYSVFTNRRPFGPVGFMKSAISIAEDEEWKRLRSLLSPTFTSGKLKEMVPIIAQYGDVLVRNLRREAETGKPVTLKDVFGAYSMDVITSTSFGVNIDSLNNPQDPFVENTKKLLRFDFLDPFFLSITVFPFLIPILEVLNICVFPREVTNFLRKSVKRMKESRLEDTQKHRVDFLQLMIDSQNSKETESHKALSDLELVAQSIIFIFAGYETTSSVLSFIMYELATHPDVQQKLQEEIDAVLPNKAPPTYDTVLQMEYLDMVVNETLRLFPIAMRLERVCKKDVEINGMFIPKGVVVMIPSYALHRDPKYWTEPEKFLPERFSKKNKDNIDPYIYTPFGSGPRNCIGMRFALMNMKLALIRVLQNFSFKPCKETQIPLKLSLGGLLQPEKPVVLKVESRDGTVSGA
Chain of CYP3A4(BFC) (P08684 whole entry): as above

For the compound `O=C(c1c(F)ccc(NS(=O)(=O)c2cc(F)ccc2F)c1F)c1c[nH]c2ncc(Cl)cc12` [P-2002, N-[3-(5-Chloro-1H-pyrrolo[2,3-b]pyridine-3-carbonyl)-2,4-difluoro-phenyl]-2,5-difluoro-benzenesulfonamide], the IC50 in data set [1] is < 20 µM; in data set [2] it was < 1 µM; in data set [3], > 10 µM; at CYP3A4(BFC) it was > 10 µM; at CYP3A4(BQ) it was > 10 µM.

With `COc1cnc2[nH]cc(C(=O)c3c(F)ccc(NS(=O)(=O)c4ccccc4F)c3F)c2c1` [P-2009, N-[2,4-Difluoro-3-(5-methoxy-1H-pyrrolo[2,3-b]pyridine-3-carbonyl)-phenyl]-2-fluoro-benzenesulfonamide], the IC50 is > 10 µM in data set [1]; < 1 µM in data set [2]; > 10 µM in data set [3]; > 10 µM on CYP3A4(BFC); > 10 µM at CYP3A4(BQ).

In the case of `COc1cnc2[nH]cc(C(=O)c3c(F)ccc(NS(=O)(=O)c4cc(F)ccc4F)c3F)c2c1` [P-2010, N-[2,4-Difluoro-3-(5-methoxy-1H-pyrrolo[2,3-b]pyridine-3-carbonyl)-phenyl]-2,5-difluoro-benzenesulfonamide], the concentration for half-maximal inhibition (IC50) in data set [1] was > 10 µM; in data set [2], < 1 µM; in data set [3] it was > 10 µM; at CYP3A4(BFC), > 10 µM; at CYP3A4(BQ), > 10 µM.

For `N#Cc1cnc2[nH]cc(C(=O)c3c(F)ccc(NS(=O)(=O)c4ccccc4F)c3F)c2c1` [P-2011, N-[3-(5-Cyano-1H-pyrrolo[2,3-b]pyridine-3-carbonyl)-2,4-difluoro-phenyl]-2-fluoro-benzenesulfonamide], the IC50 in data set [1] was > 10 µM; in data set [2], < 1 µM; in data set [3], > 10 µM; at CYP3A4(BFC), > 10 µM; at CYP3A4(BQ), > 10 µM.

Regarding `Cc1cnc2[nH]cc(C(=O)c3c(F)ccc(NS(=O)(=O)c4ccccc4F)c3F)c2c1` [P-2014, N-[2,4-Difluoro-3-(5-methyl-1H-pyrrolo[2,3-b]pyridine-3-carbonyl)-phenyl]-2-fluoro-benzenesulfonamide], the concentration for half-maximal inhibition (IC50) in data set [1] is > 10 µM; in data set [2], < 1 µM; in data set [3], > 10 µM; on CYP3A4(BFC) it was > 10 µM; on CYP3A4(BQ), > 10 µM.

For `Cc1cnc2[nH]cc(C(=O)c3c(F)ccc(NS(=O)(=O)c4cc(F)ccc4F)c3F)c2c1` [P-2015, N-[2,4-Difluoro-3-(5-methyl-1H-pyrrolo[2,3-b]pyridine-3-carbonyl)-phenyl]-2,5-difluoro-benzenesulfonamide], the concentration for half-maximal inhibition (IC50) is > 10 µM in data set [1]; < 1 µM in data set [2]; > 10 µM in data set [3]; > 10 µM on CYP3A4(BFC); > 10 µM on CYP3A4(BQ).

Regarding `COc1ccnc2[nH]cc(C(=O)c3c(F)ccc(NS(=O)(=O)c4cc(F)ccc4F)c3F)c12` [P-2022, N-[2,4-Difluoro-3-(4-methoxy-1H-pyrrolo[2,3-b]pyridine-3-carbonyl)-phenyl]-2,5-difluoro-benzenesulfonamide], the IC50 in data set [1] was > 10 µM; in data set [2], < 5 µM; in data set [3], > 10 µM.

Turning to `CCCS(=O)(=O)Nc1ccc(F)c(C(=O)c2c[nH]c3ncc(-c4ccc(S(=O)(=O)NC5CC5)cc4)cc23)c1F` [P-2168, N-Cyclopropyl-4-{3-[2,6-difluoro-3-(propane-1-sulfonylamino)-benzoyl]-1H-pyrrolo[2,3-b]pyridin-5-yl}-benzenesulfonamide], the figures for the IC50 in data set [1], in data set [2] and in data set [3] were < 5 µM, < 1 µM and < 5 µM, respectively.

Take `CCCS(=O)(=O)Nc1ccc(F)c(C(=O)c2c[nH]c3ncc(-c4ccnc(F)c4)cc23)c1F` [P-2192, Propane-1-sulfonic acid {2,4-difluoro-3-[5-(2-fluoro-pyridin-4-yl)-1H-pyrrolo[2,3-b]pyridine-3-carbonyl]-phenyl}-amide]: the IC50 in data set [1] was > 10 µM; in data set [2], < 1 µM; at CYP3A4(BFC), > 10 µM; at CYP3A4(BQ), > 10 µM.

Regarding `CCCS(=O)(=O)Nc1ccc(F)c(C(=O)c2c[nH]c3ncc(-c4cnc(N5CCCC5)nc4)cc23)c1F` [P-2219, Propane-1-sulfonic acid {2,4-difluoro-3-[5-(2-pyrrolidin-1-yl-pyrimidin-5-yl)-1H-pyrrolo[2,3-b]pyridine-3-carbonyl]-phenyl}-amide], the IC50 is > 10 µM in data set [1], < 0.1 µM in data set [2] and > 10 µM in data set [3].

As to `CCCS(=O)(=O)Nc1ccc(F)c(C(=O)c2c[nH]c3ncc(-c4ccc(C#CCN(CC)CC)nc4)cc23)c1F` [P-2222, Propane-1-sulfonic acid (3-{5-[6-(3-diethylamino-prop-1-ynyl)-pyridin-3-yl]-1H-pyrrolo[2,3-b]pyridine-3-carbonyl}-2,4-difluoro-phenyl)-amide], the IC50 is > 10 µM in data set [1], < 0.1 µM in data set [2], > 10 µM on CYP3A4(BFC) and 5 to 10 µM on CYP3A4(BQ).

Regarding `CCCc1ccc(-c2cnc3[nH]cc(C(=O)c4c(F)ccc(NS(=O)(=O)CCC)c4F)c3c2)cn1` [P-2224, Propane-1-sulfonic acid {2,4-difluoro-3-[5-(6-propyl-pyridin-3-yl)-1H-pyrrolo[2,3-b]pyridine-3-carbonyl]-phenyl}-amide], the IC50 is > 10 µM in data set [1], < 1 µM in data set [2], > 10 µM at CYP3A4(BFC) and > 10 µM on CYP3A4(BQ).

For `CCCS(=O)(=O)Nc1ccc(F)c(C(=O)c2c[nH]c3ncc(-c4ccc(CCCOC)nc4)cc23)c1F` [P-2226, Propane-1-sulfonic acid (2,4-difluoro-3-{5-[6-(3-methoxy-propyl)-pyridin-3-yl]-1H-pyrrolo[2,3-b]pyridine-3-carbonyl}-phenyl)-amide], the IC50 was > 10 µM in data set [1], < 0.1 µM in data set [2], > 10 µM on CYP3A4(BFC) and > 10 µM at CYP3A4(BQ).

Take `CCCS(=O)(=O)Nc1ccc(F)c(C(=O)c2c[nH]c3ncc(-c4cccc(S(C)(=O)=O)c4)cc23)c1F` [P-2228, Propane-1-sulfonic acid {2,4-difluoro-3-[5-(3-methanesulfonyl-phenyl)-1H-pyrrolo[2,3-b]pyridine-3-carbonyl]-phenyl}-amide]: the IC50 in data set [1] was > 10 µM; in data set [2] it was < 1 µM; on CYP3A4(BFC), > 10 µM; on CYP3A4(BQ) it was > 10 µM.

Consider `CCCS(=O)(=O)Nc1ccc(F)c(C(=O)c2c[nH]c3ncc(-c4ccc(N5CCCC5)nc4)cc23)c1F` [P-2231, Propane-1-sulfonic acid {2,4-difluoro-3-[5-(6-pyrrolidin-1-yl-pyridin-3-yl)-1H-pyrrolo[2,3-b]pyridine-3-carbonyl]-phenyl}-amide], for which the 50% inhibitory concentration (IC50) in data set [1] is < 5 µM; in data set [2] it was < 0.1 µM; on CYP3A4(BFC), > 10 µM; at CYP3A4(BQ), > 10 µM.

Take `CCCS(=O)(=O)Nc1ccc(F)c(C(=O)c2c[nH]c3ncc(-c4ccc(OCCN5CCOCC5)nc4)cc23)c1F` [P-2232, Propane-1-sulfonic acid (2,4-difluoro-3-{5-[6-(2-morpholin-4-yl-ethoxy)-pyridin-3-yl]-1H-pyrrolo[2,3-b]pyridine-3-carbonyl}-phenyl)-amide]: the IC50 in data set [1] was > 10 µM; in data set [2], < 0.1 µM; on CYP3A4(BFC) it was > 10 µM; on CYP3A4(BQ), > 10 µM.

With `CCCS(=O)(=O)Nc1ccc(F)c(C(=O)c2c[nH]c3ncc(-c4ccc(OCCN5CCCC5)nc4)cc23)c1F` [P-2233, Propane-1-sulfonic acid (2,4-difluoro-3-{5-[6-(2-pyrrolidin-1-yl-ethoxy)-pyridin-3-yl]-1H-pyrrolo[2,3-b]pyridine-3-carbonyl}-phenyl)-amide], the IC50 in data set [1] is > 10 µM; in data set [2], < 0.1 µM; at CYP3A4(BFC), > 10 µM; on CYP3A4(BQ) it was > 10 µM.

For the compound `CCCS(=O)(=O)Nc1ccc(F)c(C(=O)c2c[nH]c3ncc(-c4ccc(OCCCN5CCCC5)nc4)cc23)c1F` [P-2235, Propane-1-sulfonic acid (2,4-difluoro-3-{5-[6-(3-pyrrolidin-1-yl-propoxy)-pyridin-3-yl]-1H-pyrrolo[2,3-b]pyridine-3-carbonyl}-phenyl)-amide], the IC50 in data set [1] is > 10 µM; in data set [2], < 0.1 µM; at CYP3A4(BFC), > 10 µM; at CYP3A4(BQ), > 10 µM.

For the compound `CCCS(=O)(=O)Nc1ccc(F)c(C(=O)c2c[nH]c3ncc(-c4ccc(OCCCN5CCOCC5)nc4)cc23)c1F` [P-2236, Propane-1-sulfonic acid (2,4-difluoro-3-{5-[6-(3-morpholin-4-yl-propoxy)-pyridin-3-yl]-1H-pyrrolo[2,3-b]pyridine-3-carbonyl}-phenyl)-amide], the IC50 in data set [1] is > 10 µM; in data set [2], < 0.1 µM; at CYP3A4(BFC) it was < 5 µM; at CYP3A4(BQ), 5 to 10 µM.

Consider `C#Cc1cnc2[nH]cc(C(=O)c3c(F)ccc(NS(=O)(=O)CCC)c3F)c2c1` [P-2260, Propane-1-sulfonic acid [3-(5-ethynyl-1H-pyrrolo[2,3-b]pyridine-3-carbonyl)-2,4-difluoro-phenyl]-amide], for which the IC50 is > 10 µM in data set [1], < 1 µM in data set [2], < 5 µM at CYP3A4(BFC) and 5 to 10 µM at CYP3A4(BQ).

One may read the IC50 as the concentration that gives 50% inhibition.
